The source of these data is publication PMC6494957 (Frontiers in Microbiology, 2019).

pIC50: −log10 of the molar value. Converted amounts (≈) assume the structure as drawn.

One assay deals with MDCK cell line. The experiment in a line: In vitro cytotoxicity, WST-1. The format is cell-based, canine. The following applies: Canis lupus familiaris, 10% FBS, read-out: IC50, single agent. As for the experimental part:
(§1) Cells were maintained in Dulbecco’s modified Eagle’s medium (DMEM) with 10% fetal bovine serum (FBS) and 1% PenStrep (100 U/mL Penicillin and 100 μg/mL Streptomycin) at 37°C with 5% CO2. Cells were serially passaged at ∼80% confluence ∼ every 4 days. Assays were performed in duplicate in 96 well plates seeded with ∼25,000 cells per well. […] Briefly, the antimicrobials were prepared by performing a twofold serial dilution at 100× of tested concentration in DMSO. Subsequently, a 1 μl aliquot of each concentration was transferred to a sterile 96-well plate containing fresh DMEM with either 10% FBS. After mixing four times, the media aliquots with different concentrations of antimicrobial were transferred to each well of the 96-well plate seeded with cells, using wells containing 1–2% DMSO only as control. To determine the effect of FBS on the cytotoxicity of each compound, DMEM with 40% FBS containing different concentrations of antimicrobial was prepared as described above. After 24 h of exposure, WST-1 reagent (Cell Proliferation Assay reagent, Roche) at a concentration of 10% was added to each well. Absorbance at A450 nm on a Multiskan Ascent 354 Spectrophotometer (Labsystems) was measured after 1 h of incubation. The IC50 value was determined for each compound against each cell line via non-linear regression (three parameters) using GraphPad Prism v6 software.

Assay [1] relates to all the cell lines tested (HaCaT, HEK 293, MDCK). The assay is described as follows: cells. The protocol:
as §1

Assay [2] has as its system 18 A. baumannii isolated from human clinical cases. The assay is described as follows: MIC/MBC, human clinical Acinetobacter isolates. The following applies: 18 A. baumannii human clinical isolates. The format is cell-based. From the text: (§2) Escherichia coli ATCC 25922, E. coli ATCC 11229, P. aeruginosa ATCC 27853, P. aeruginosa PA01, Pseudomonas putida ATCC 17428, P. mirabilis ATCC 43071, K. pneumoniae ATCC 13883, A. baumannii ATCC 19606, and A. baumannii ATCC 12457 were used for preliminary susceptibility testing and combination experiments. S. aureus ATCC 29213 and S. pneumoniae ATCC 49619 were used as internal quality controls. A variety of bacterial organisms from both human and canine infections were investigated in this study (n = 119 isolates in total). Twenty-eight clinical Acinetobacter spp. isolates were obtained from cases of human skin and soft tissue infections, including 18 Acinetobacter baumannii and 10 A. calcoaceticus, kindly provided by a person (Institute of Medical and Veterinary Science, South Australia). […] Ninety-one clinical isolates were obtained from cases of canine otitis externa, including seven methicillin-susceptible S. pseudintermedius (MSSP), 13 multidrug- and methicillin-resistant S. pseudintermedius (MRSP) ([Saputra et al., 2017]), 20 beta-haemolytic Streptococcus spp., 30 P. aeruginosa (10 of them resistant to gentamicin and 21 P. mirabilis isolates). These isolates were obtained from the bacterial collection of the national survey of antimicrobial resistance in animals conducted in Australia. Swab samples from dogs with signs of otitis externa were collected by veterinarians and submitted to government, private or university diagnostic laboratories throughout Australia. After routine bacterial identification and the removal of confidential information, the participating veterinary diagnostic laboratories submitted the bacteria and their clinical information to PC2 Laboratories, Australian Centre for Antimicrobial Resistance Ecology, School of Animal and Veterinary Sciences, University of Adelaide, Roseworthy Campus, Roseworthy, SA, Australia, for further study. Thus, animal ethics approval was not required in this study. These organisms were identified to species level using biochemical testing and MALDI-TOF mass spectrometry (Bruker, Preston, VIC, Australia).
(§3) The MIC for ampicillin or gentamicin against each isolate was determined for each test to serve as an internal quality control. The MICs of isolates were determined by visual reading and using an EnSpire Multimode Plate Reader 2300 atA600nm.
(§4) Briefly, 10 μl aliquots from each duplicate well from the MIC assays (starting from the MIC for each compound) were inoculated onto a sheep blood agar (SBA) plate and incubated at 37°C.

The test system of assay [3] is 10 A. calcoaceticus isolated from human clinical cases. The experiment in a line: MIC/MBC, human clinical Acinetobacter isolates. The format is cell-based. The settings on record: 10 A. calcoaceticus human clinical isolates.
Text: as §2, §3, §4

A further assay concerns Acinetobacter spp. The assay is described as follows: Checkerboard, summary for Acinetobacter spp. The format is cell-based. The following applies: in the presence of EDTA and PMBN. The protocol: Briefly, antimicrobial stock solutions for robenidine and PMBN were prepared at a concentration of 12.8 mg/ml in DMSO. […] A 1 μl aliquot of the first compound from each combination was dispensed along the abscissa (from row A to G) of the 96-well microplate, while the second compound was dispensed along the ordinate (from column 12 to column 3) using an electronic multichannel pipette followed by 89 μl of LB broth. Each well of the plate was inoculated with an aliquot of 10 μl bacterial suspension at a concentration of 1-5 × 10^6 colony forming units (CFU) per ml. Subsequently, the plate was incubated at 37°C for 24 h. The fractional inhibitory concentration index (FICI) described the results of the combinations, and was calculated utilizing the following formula:
DRI = MIC of drug alone/MIC of drug in combination

The next assay has as its system S. aureus ATCC 29213. The experiment in a line: MIC broth microdilution, quality control strain. The format is cell-based. The settings on record: Staphylococcus aureus, ATCC29213; S. aureus ATCC 29213, quality control strain. As for the experimental part: Luria Bertani (LB) broth (Oxoid, Australia) was applied for MIC testing in lieu of cation-adjusted Mueller–Hinton broth as robenidine has been previously shown to chelate calcium ions. Furthermore, a twofold serial dilution of robenidine was performed in 100% DMSO, with 1 μl dispensed to each well due to the hydrophobicity of the compound ([Abraham et al., 2016]). The MIC for ampicillin or gentamicin against each isolate was determined for each test to serve as an internal quality control. The MICs of isolates were determined by visual reading and using an EnSpire Multimode Plate Reader 2300 atA600nm.
For orientation: Broth dilution looks for growth in wells or tubes with falling amounts of substance.

In the next assay the test system is S. pneumoniae strains. Also noted: method as in Abraham et al., 2016; Ogunniyi et al., 2017. The settings on record: ref Abraham et al., 2016, Ogunniyi et al., 2017; cited from earlier work.
The subject of another assay is clinical MRSA. Details: method as in Abraham et al., 2016; Ogunniyi et al., 2017. The following applies: ref Abraham et al., 2016, Ogunniyi et al., 2017; cited from earlier work.

Regarding `O=C(O)CN(CCN(CC(=O)O)CC(=O)O)CC(=O)O` [EDTA, ethylenediaminetetraacetic acid], the pIC50 (in the assay with MDCK cell line; in assay [1]) was 2.47 each time.

As for `N=C(N/N=C/c1ccc(Cl)cc1)N/N=C/c1ccc(Cl)cc1` [ROB, robenidine], the values for the MIC range in assay [2] and in assay [3] were 8 to 64 µg/mL and 1 to 8 µg/mL, respectively. The minimum inhibitory concentration (MIC) – broadly, the smallest concentration in the dilution series that meets the test's criterion for growth inhibition – in assay [2] (Acinetobacter baumannii) was 8 µg/mL; in assay [3] (Acinetobacter calcoaceticus) it was 2 µg/mL; against S. aureus ATCC 29213, 2 µg/mL (≈ 5.98 µM). The “fold reduction of robenidine MICs” value in the assay with Acinetobacter spp. is listed as 8- to 32 fold. Further, the “effective concentrations (MIC range)” value in the assay with S. pneumoniae strains is 2 to 8 µg/mL; in the assay on clinical MRSA, 1 to 2 µg/mL.
